“And” between values parts separate entries of the source, which are not always exact repeats. Equal values may be shown once. Results filed as inconclusive are left out.
System: nude mice, LX-1 lung xenograft intrarenal, tumor weight T/C
Assay: NCI In Vivo Anticancer Drug Screen. Data for tumor model Human Lung LX-1 Xenograft (intrarenal inoculation) in NU/NU Swiss (nude) mice
Conditions: endpoint: mean tumor weight change, higher = larger tumour
Procedure, shortened: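 Antitumor effect is expressed as a ratio: the mean tumor measurement of the drug-treated group relative to that of the vehicle-dosed control group.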

[1] = dose: 400.0 mg/kg/injection, schedule: Q01DX010 (sc), vehicle: saline
[2] = dose: 300.0 mg/kg/injection, schedule: Q04DX003 (sc), vehicle: saline with Tween-80
[3] = dose: 300.0 mg/kg/injection, schedule: Q04DX003 (sc), vehicle: Klucel (hydroxypropylcellulose) (HPC)
[4] = dose: 600.0 mg/kg/injection, schedule: Q04DX003 (sc), vehicle: Klucel (hydroxypropylcellulose) (HPC)
[5] = dose: 1200.0 mg/kg/injection, schedule: Q04DX003 (sc), vehicle: Klucel (hydroxypropylcellulose) (HPC)
[6] = dose: 2400.0 mg/kg/injection, schedule: Q04DX003 (sc), vehicle: Klucel (hydroxypropylcellulose) (HPC)
[7] = dose: 50.0 mg/kg/injection, schedule: Q01DX010 (sc), vehicle: Klucel (hydroxypropylcellulose) (HPC)

O=C1c2c(O)ccc(O)c2C(=O)c2c(NCCNCCO)ccc(NCCNCCO)c21
T/C (dose: 0.5 mg/kg/injection, schedule: Q01DX010 (sc), vehicle: acid diluted with saline): 57 % of control
T/C (dose: 0.5 mg/kg/injection, schedule: Q01DX010 (sc), vehicle: water): 47 % of control
T/C (dose: 1.0 mg/kg/injection, schedule: Q01DX010 (sc), vehicle: acid diluted with saline): 40 % of control
T/C (dose: 1.0 mg/kg/injection, schedule: Q01DX010 (sc), vehicle: water): 34 % of control
T/C (dose: 2.0 mg/kg/injection, schedule: Q01DX010 (sc), vehicle: acid diluted with saline): 52 % of control
T/C (dose: 5.0 mg/kg/injection, schedule: Q04DX003 (sc), vehicle: water): 53 % of control
T/C (dose: 10.0 mg/kg/injection, schedule: Q04DX003 (sc), vehicle: water): 26 % of control

Nc1nc(F)nc2c1ncn2C1OC(COP(=O)(O)O)C(O)C1O (stereo not given)
T/C (dose: 50.0 mg/kg/injection, schedule: Q01DX010 (sc), vehicle: saline): 55 % of control
T/C (dose: 50.0 mg/kg/injection, schedule: Q01DX010 (sc), vehicle: suspension in saline): 53 % of control and 70 % of control
T/C (dose: 100.0 mg/kg/injection, schedule: Q01DX010 (sc), vehicle: saline): 20 % of control and 30 % of control
T/C (dose: 100.0 mg/kg/injection, schedule: Q01DX010 (sc), vehicle: suspension in saline): 56 % of control and 59 % of control
T/C (dose: 200.0 mg/kg/injection, schedule: Q01DX010 (sc), vehicle: suspension in saline): 6 % of control and 18 % of control
T/C [1]: -72 % of control
T/C (dose: 400.0 mg/kg/injection, schedule: Q01DX010 (sc), vehicle: suspension in saline): -62 % of control

CC(=O)NCCCCCCNC(C)=O
T/C (dose: 200.0 mg/kg/injection, schedule: Q01DX010 (sc), vehicle: saline): 106 % of control
T/C [1]: 45 % of control
T/C (dose: 800.0 mg/kg/injection, schedule: Q01DX010 (sc), vehicle: saline): 105 % of control and 114 % of control
T/C (dose: 3200.0 mg/kg/injection, schedule: Q01DX010 (sc), vehicle: saline): 96 % of control

CN(C)C1C(=O)C(C(=O)NP(=O)(NCCCO)N(CCCl)CCCl)=C(O)C2(O)C(=O)C3=C(O)c4c(O)cccc4C(C)(O)C3CC12 (stereo not given)
T/C [2]: 47 % of control

c1cc[c]([Sn][c]2ccccc2)cc1
T/C (dose: 10.0 mg/kg/injection, schedule: Q01DX010 (sc), vehicle: saline): 78 % of control
T/C (dose: 20.0 mg/kg/injection, schedule: Q01DX010 (sc), vehicle: saline): 54 % of control
T/C (dose: 40.0 mg/kg/injection, schedule: Q01DX010 (sc), vehicle: saline): 81 % of control

CCC[CH2][Sn]1([CH2]CCC)[O]C2C(CO)OC(n3ccc(N)nc3=O)C2[O]1 (stereo not given)
T/C (dose: 12.0 mg/kg/injection, schedule: Q04DX003 (sc), vehicle: Klucel (hydroxypropylcellulose) (HPC)): 82 % of control
T/C (dose: 24.0 mg/kg/injection, schedule: Q04DX003 (sc), vehicle: Klucel (hydroxypropylcellulose) (HPC)): 66 % of control
T/C (dose: 48.0 mg/kg/injection, schedule: Q04DX003 (sc), vehicle: Klucel (hydroxypropylcellulose) (HPC)): 115 % of control

C[N+](C)(C)c1ncnc2c1ncn2C1CCCO1 (stereo not given)
T/C (dose: 0.25 mg/kg/injection, schedule: Q01DX010 (sc), vehicle: saline): 65 % of control
T/C (dose: 1.0 mg/kg/injection, schedule: Q01DX010 (sc), vehicle: saline): 106 % of control
T/C (dose: 2.0 mg/kg/injection, schedule: Q01DX010 (sc), vehicle: saline): 94 % of control
T/C (dose: 12.5 mg/kg/injection, schedule: Q01DX010 (sc), vehicle: saline): 176 % of control
T/C (dose: 25.0 mg/kg/injection, schedule: Q01DX010 (sc), vehicle: saline): 120 % of control

COc1cccc2c1C(=N)c1c(O)c3c(c(O)c1C2=O)C[C@@](O)(C(C)=O)C[C@@H]3OC1CC(N)C(O)C(C)O1 (stereo not given in full)
T/C (dose: 24.0 mg/kg/injection, schedule: Q04DX003 (sc), vehicle: water): 46 % of control
T/C (dose: 48.0 mg/kg/injection, schedule: Q04DX003 (sc), vehicle: water): 10 % of control
T/C (dose: 96.0 mg/kg/injection, schedule: Q04DX003 (sc), vehicle: water): 23 % of control

CN1C(=O)CC2(CCN(CCCC(=O)c3ccc(F)cc3)CC2)C1=O
T/C (dose: 18.75 mg/kg/injection, schedule: Q04DX003 (sc), vehicle: suspension in saline): 33 % of control
T/C (dose: 75.0 mg/kg/injection, schedule: Q04DX003 (sc), vehicle: suspension in saline): 85 % of control
T/C (dose: 150.0 mg/kg/injection, schedule: Q04DX003 (sc), vehicle: suspension in saline): 77 % of control

CSc1ncc2ncn(C3OC(CO)C(O)C3O)c2n1 (stereo not given)
T/C [3]: 61 % of control
T/C [4]: 57 % of control
T/C [5]: 56 % of control
T/C [6]: 53 % of control

O=C1NC2(CCCCC2)C(=O)N1CCN(CCCl)CCCl
T/C (dose: 4.0 mg/kg/injection, schedule: Q01DX010 (sc), vehicle: suspension in saline): 524 % of control
T/C (dose: 6.0 mg/kg/injection, schedule: Q01DX010 (sc), vehicle: saline): 85 % of control
T/C (dose: 6.0 mg/kg/injection, schedule: Q01DX010 (sc), vehicle: suspension in saline): 39 % of control and 58 % of control
T/C (dose: 8.0 mg/kg/injection, schedule: Q01DX010 (sc), vehicle: suspension in saline): 244 % of control
T/C (dose: 12.0 mg/kg/injection, schedule: Q01DX010 (sc), vehicle: saline): 31 % of control
T/C (dose: 16.0 mg/kg/injection, schedule: Q01DX010 (sc), vehicle: suspension in saline): 115 % of control
T/C (dose: 32.0 mg/kg/injection, schedule: Q01DX010 (sc), vehicle: suspension in saline): 63 % of control

CC1(C)OCC(CO)(Nc2nc(N3CC3)nc(N3CC3)n2)CO1
T/C (dose: 1.25 mg/kg/injection, schedule: Q01DX010 (sc), vehicle: saline): 74 % of control

O=Cc1c(O)c2ccccc2[nH]c1=O
T/C (dose: 150.0 mg/kg/injection, schedule: Q04DX003 (sc), vehicle: saline with Tween-80): 84 % of control
T/C [2]: 99 % of control
T/C (dose: 600.0 mg/kg/injection, schedule: Q04DX003 (sc), vehicle: saline with Tween-80): 90 % of control
T/C (dose: 1200.0 mg/kg/injection, schedule: Q04DX003 (sc), vehicle: saline with Tween-80): 50 % of control

C[n+]1c2cc(N)ccc2cc2ccc(N)cc21
T/C (dose: 6.25 mg/kg/injection, schedule: Q01DX010 (sc), vehicle: saline): 72 % of control

OCCO
T/C (dose: 8.0 % in 0.5 ml injection vol, schedule: Q04DX003 (sc), vehicle: water): 121 % of control
T/C (dose: 16.0 % in 0.5 ml injection vol, schedule: Q04DX003 (sc), vehicle: water): 108 % of control

S=c1nc[nH]c2nc[nH]c12
T/C (dose: 6.25 mg/kg/injection, schedule: Q01DX010 (sc), vehicle: Klucel (hydroxypropylcellulose) (HPC)): 120 % of control
T/C [7]: 51 % of control and 55 % of control

C[PH+](C)C.C[PH+](C)C.[Au]
T/C (dose: 5.0 mg/kg/injection, schedule: Q04DX003 (sc), vehicle: suspension in saline): 111 % of control
T/C (dose: 10.0 mg/kg/injection, schedule: Q04DX003 (sc), vehicle: suspension in saline): 118 % of control
T/C (dose: 20.0 mg/kg/injection, schedule: Q04DX003 (sc), vehicle: suspension in saline): 76 % of control

COC1CC(C)C(OC)c2cc(O)cc(c2O)NC(=O)/C(C)=C/C=C\C(C)C(OC(N)=O)/C(C)=C\C(C)C1OC (stereo not given)
T/C (dose: 25.0 mg/kg/injection, schedule: Q04DX003 (sc), vehicle: saline + alcohol): 86 % of control
T/C (dose: 50.0 mg/kg/injection, schedule: Q04DX003 (sc), vehicle: saline + alcohol): 93 % of control
T/C (dose: 100.0 mg/kg/injection, schedule: Q04DX003 (sc), vehicle: saline + alcohol): 82 % of control

C[CH2][Ge]1([CH2]C)[CH2]CC2(CCN(CCCN(C)C)C2)C[CH2]1
T/C (dose: 150.0 mg/kg/injection, schedule: Q04DX003 (sc), vehicle: saline): 89 % of control

CC(C)CC(NC(=O)CF)C(=O)O (stereo not given)
T/C (dose: 5.0 mg/kg/injection, schedule: Q04DX003 (sc), vehicle: saline): 104 % of control
T/C (dose: 10.0 mg/kg/injection, schedule: Q04DX003 (sc), vehicle: saline): 111 % of control
T/C (dose: 20.0 mg/kg/injection, schedule: Q04DX003 (sc), vehicle: saline): 70 % of control

Cc1cc(N(CCOS(C)(=O)=O)CCOS(C)(=O)=O)ccc1C=Nc1ccc(-c2nc(Cc3ccccc3)sc2C)cc1
T/C [7]: 12 % of control and 26 % of control
T/C (dose: 100.0 mg/kg/injection, schedule: Q01DX010 (sc), vehicle: Klucel (hydroxypropylcellulose) (HPC)): 5 % of control (2×) and 11 % of control
T/C (dose: 200.0 mg/kg/injection, schedule: Q01DX010 (sc), vehicle: Klucel (hydroxypropylcellulose) (HPC)): 1 % of control
T/C (dose: 400.0 mg/kg/injection, schedule: Q01DX010 (sc), vehicle: Klucel (hydroxypropylcellulose) (HPC)): 1 % of control

CCC(=O)O[C@H]1CC[C@H]2[C@@H]3CCC4=CC(=O)CC[C@]4(C)[C@H]3CC[C@]12C
T/C [3]: 77 % of control
T/C [4]: 59 % of control
T/C [5]: 65 % of control
T/C [6]: 69 % of control
